# Measured values published in patent publication EP2649091B1, “IMMUNE RESTRICTED PEPTIDES WITH INCREASED EFFICACY” (Stichting Het Nederlands Kanker Instituut, priority 2010, dated 2012).
# Several values for one entry are separate records, joined by “and”; a condition that tells them apart may be missing. Equal entries are not always repeated. Where no end group is shown, it is not given here. BUTALA = not defined here; PHG = not defined here
# Experiments:
# [1] = test system: CD8+ T cells from Influenza A positive donors sorted using tetramers containing HLA A2.1::[…]; assay type: cell-based
# HLA-A0201 = HLA-A0201 (Homo sapiens, UniProt P04439, D140Y/D185E/D98H/E176V/E277Q/G131W/G231S/I119V/I121R/I166T/I218V/L300P/L318F/N151K/N90K/P208A/P217A/Q86G/Q94H/R138H/R169H/T345S); assay type: binding
# [2] = test system: CD8+ T cells from Influenza A positive donors sorted using tetramers containing HLA A2.1::[…]; assay type: cell-based; remark: listed apart in the source
# [3] = test system: HLA-A2::Mart-1(26-35) reactive T cells stimulated by T2 cells; assay: T cell activation time course assay, IFNγ production (FACS), Mart-1 epitope; assay type: cell-based; settings: for % CD8+ T cells producing IFN-γ 0H / Geometric mean IFN-γ in arbitrary fluorescence units 0H: time point 0H (basal); for % CD8+ T cells producing IFN-γ 2H / Geometric mean IFN-γ in arbitrary fluorescence units 2H: time point 2H; for % CD8+ T cells producing IFN-γ 4H / Geometric mean IFN-γ in arbitrary fluorescence units 4H: time point 4H; for % CD8+ T cells producing IFN-γ 24H / Geometric mean IFN-γ in arbitrary fluorescence units 24H: time point 24H; for % CD8+ T cells producing IFN-γ 24H / Geometric mean IFN-γ in arbitrary fluorescence units 24H / % CD8+ T cells producing IFN-γ 48H / Geometric mean IFN-γ in arbitrary fluorescence units 48H: free peptide washed away; for % CD8+ T cells producing IFN-γ 48H / Geometric mean IFN-γ in arbitrary fluorescence units 48H: time point 48H
Substance,% Positive TCR recognition % TCR [1] [%],Geometric mean IFN in arbitrary fluorescence units Geo TCR [1],% inhibition at T=4H and T=24H FP 4h (HLA-A0201) [%],% inhibition at T=4H and T=24H FP 24h (HLA-A0201) [%],IC50 Ratio (HLA-A0201),% CD8+ T cells producing IFN-γ % IFN [2] [%],Geometric mean IFN-γ in arbitrary fluorescence units Geo IFN [2],other results
[PHG]I[NLE]GFVFTL,3.26,235 arbitrary fluorescence units,86,84,3,2.9,270 arbitrary fluorescence units,
[PHG][BUTALA]LGFVFTL ({PHG-BUTALA}-LGFVFTL; reading uncertain),3.16,464 arbitrary fluorescence units,,75,,2.5,249 arbitrary fluorescence units,
[PHG][NLE]LGFVFTL,3.58,328 arbitrary fluorescence units,77,77,4,2.7,238 arbitrary fluorescence units,
[am-phg]ILGFV[4-FPHE]TL,3.27,197 arbitrary fluorescence units,92,93,6,2.2,208 arbitrary fluorescence units,
[am-phg][2-AOC]AGIGILT[PRG],,,80,77,24.3 and 24,,,% CD8+ T cells producing IFN-γ 0H ([3]; peptide 0.5 pM): 0%; Geometric mean IFN-γ in arbitrary fluorescence units 0H ([3]; peptide 0.5 pM): 104 arbitrary fluorescence units; % CD8+ T cells producing IFN-γ 2H ([3]; peptide 0.5 pM): 26%; Geometric mean IFN-γ in arbitrary fluorescence units 2H ([3]; peptide 0.5 pM): 207 arbitrary fluorescence units; % CD8+ T cells producing IFN-γ 4H ([3]; peptide 0.5 pM): 30%; Geometric mean IFN-γ in arbitrary fluorescence units 4H ([3]; peptide 0.5 pM): 378 arbitrary fluorescence units; % CD8+ T cells producing IFN-γ 24H ([3]; peptide 0.5 pM): 1%; Geometric mean IFN-γ in arbitrary fluorescence units 24H ([3]; peptide 0.5 pM): 116 arbitrary fluorescence units; % CD8+ T cells producing IFN-γ 48H ([3]; peptide 0.5 pM): 0%; Geometric mean IFN-γ in arbitrary fluorescence units 48H ([3]; peptide 0.5 pM): 88 arbitrary fluorescence units; % CD8+ T cells producing IFN-γ 0H ([3]; peptide 50 pM): 0%; Geometric mean IFN-γ in arbitrary fluorescence units 0H ([3]; peptide 50 pM): 109 arbitrary fluorescence units; % CD8+ T cells producing IFN-γ 2H ([3]; peptide 50 pM): 27%; Geometric mean IFN-γ in arbitrary fluorescence units 2H ([3]; peptide 50 pM): 258 arbitrary fluorescence units; % CD8+ T cells producing IFN-γ 4H ([3]; peptide 50 pM): 30%; Geometric mean IFN-γ in arbitrary fluorescence units 4H ([3]; peptide 50 pM): 592 arbitrary fluorescence units; % CD8+ T cells producing IFN-γ 24H ([3]; peptide 50 pM): 16%; Geometric mean IFN-γ in arbitrary fluorescence units 24H ([3]; peptide 50 pM): 187 arbitrary fluorescence units; % CD8+ T cells producing IFN-γ 48H ([3]; peptide 50 pM): 1%; Geometric mean IFN-γ in arbitrary fluorescence units 48H ([3]; peptide 50 pM): 86 arbitrary fluorescence units
